Results published in patent US6949571B2, “1,2-dihydropyridine compounds, process for preparation of the same and use thereof” (Eisai Co., Ltd., priority 2000, dated 2005).
pIC50: −log10 of the molar value.

test system: AMPA receptor; conditions: Table 1; primary culture of rat embryo cerebral cortex nerve cells, 2 μM AMPA, 1 μM MK-801
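Also: primary rat embryonic cortical neurons grown on an astrocyte layer in 96-well plates, used after at least 8 to 10 days in culture, Fura2-AM fluorescence ratio at 340/380 nm excitation.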
Experimental: Cerebral cortex was cut out from the brain of rat of gestational 18 days and treated with trypsin and DNase to disperse the cells. The cells were flown by MEM containing 10% of serum, sown in a culture bottle and astrocytes were proliferated. The astrocytes were re-dispersed by trypsin and sown in a 96-well plate. After incubation for one week, it was confirmed that the astrocytes covered all over the bottom and then the nerve cells of cerebral cortex which was dispersed by the above method were sown thereupon. After incubation for 24 hours, the medium was changed, the incubation was carried out for one week and, after that, the medium was changed to that containing 1 μM of MK-801. Nerve cells which were incubated for not shorter than 8 to 10 days were used.
Calcium influx into the cells was measured using Fura2-AM which was a calcium-sensitive fluorescent dye. It was treated in a medium containing Fura2-AM for 1 hour, incorporated into the cells, exchanged to a Tyrode solution containing 1 μM MK-801 and stimulation was carried out using 2 μM AMPA. Change in the amount of calcium flown into the cells were measured as the change in the fluorescent intensity at the exciting wave length of 340/380 nm.

Q: How did the pIC50 turn out when `N#Cc1ccccc1-c1cc(-c2ccccn2)cn(-c2ccc(N3CCN(Cc4ccccc4)CC3)nc2)c1=O` [Example 113, 3-(2-Cyanophenyl)-5-(2-pyridyl)-1-[2-(4-benzylpiperazin-1-yl)-pyridin-5-yl]-1,2-dihydropyridin-2-one] was run?
A: The pIC50 was 5.92.

Q: How did the pIC50 turn out when `O=c1c(-c2ccccc2)cc(-c2ccccn2)cn1-c1cccc(F)c1` [Example 97, 3-Phenyl-5-(2-pyridyl)-1-(3-fluorophenyl)-1,2-dihydropyridin-2-one] was run?
A: The pIC50 was 6.40.

Q: `N#Cc1ccc(-c2cc(-c3ccccn3)cn(-c3ccccc3)c2=O)cc1` [Example 64, 3-(4-Cyanophenyl)-5-(2-pyridyl)-1-phenyl-1,2-dihydropyridin-2-one] was tested. Which pIC50 did it give?
A: Its pIC50 is 5.55.

Q: `N#Cc1ccccc1-c1cc(-c2ccsc2CO)cn(-c2ccccc2)c1=O` [Example 30, 3-(2-Cyanophenyl)-5-(2-hydroxymethylthiophen-3-yl)-1-phenyl-1,2-dihydropyridin-2-one] was tested. Which pIC50 did it give?
A: The pIC50 was 7.40.

Q: With `CN1CCN(c2ccc(-n3cc(-c4ccccn4)cc(-c4ccccc4C#N)c3=O)cn2)CC1` [Example 121, 3-(2-Cyanophenyl)-5-(2-pyridyl)-1-[2-(4-methylpiperazin-1-yl)-pyridin-5-yl]-1,2-dihydropyridin-2-one] as the compound, how does the pIC50 read?
A: The pIC50 was 6.22.

Q: `N#Cc1ccccc1-c1cc(-c2ccccn2)cn(-c2ccc(N3CCCC3)nc2)c1=O` [Example 112, 3-(2-Cyanophenyl)-5-(2-pyridyl)-1-[2-(pyrrolidin-1-yl)-pyridin-5-yl]-1,2-dihydropyridin-2-one] was tested. Which pIC50 did it give?
A: The pIC50 was 6.22.

Q: `CC(=O)OCc1cccc(-n2cc(-c3ccccn3)cc(-c3ccccc3C#N)c2=O)c1` [Example 25, 3-(2-Cyanophenyl)-5-(2-pyridyl)-1-(3-acetoxymethylphenyl)-1,2-dihydropyridin-2-one] was tested. Which pIC50 did it give?
A: Its pIC50 is 7.52.

Q: `CCN(CC)Cc1sccc1-c1cc(-c2ccccc2C#N)c(=O)n(-c2ccccc2)c1` [Example 29, 3-(2-Cyanophenyl)-5-(2-diethylaminomethylthiophen-3-yl)-1-phenyl-1,2-dihydropyridin-2-one] was tested. Which pIC50 did it give?
A: Its pIC50 is 7.00.

Q: With `N#Cc1ccc(-n2cc(-c3ccccn3)cc(-c3ccccc3C#N)c2=O)cc1` [Example 93, 3-(2-Cyanophenyl)-5-(2-pyridyl)-1-(4-cyanophenyl)-1,2-dihydropyridin-2-one] as the compound, how does the pIC50 read?
A: Its pIC50 is 5.72.

Q: With `N#Cc1cccc(-c2cc(-c3ccccn3)cn(-c3ccccc3)c2=O)c1` [Example 63, 3-(3-Cyanophenyl)-5-(2-pyridyl)-1-phenyl-1,2-dihydropyridin-2-one] as the compound, how does the pIC50 read?
A: The pIC50 was 5.96.

Q: How did the pIC50 turn out when `O=c1c(-c2ccc(Cl)cc2Cl)cc(-c2ccccn2)cn1-c1cccnc1` [Example 131, 3-(2.4-Dichlorophenyl)-5-(2-pyridyl)-1-(3-pyridyl)-1,2-dihydropyridin-2-one] was run?
A: The pIC50 was 5.43.

Q: How did the pIC50 turn out when `N#Cc1ccccc1-c1cc(-c2ccccn2)cn(Cc2ccccc2)c1=O` [Example 31, 3-(2-Cyanophenyl)-5-(2-pyridyl)-1-benzyl-1,2-dihydropyridin-2-one] was run?
A: The pIC50 was 7.00.

Q: How did the pIC50 turn out when `N#Cc1ccccc1-c1cc(-c2cccs2)cn(-c2ccccc2)c1=O` [Example 46, 3-(2-Cyanophenyl)-5-(thiophen-2-yl)-1-phenyl-1,2-dihydropyridin-2-one] was run?
A: The pIC50 was 6.40.

Q: How did the pIC50 turn out when `COc1cccc(-n2cc(-c3ccccn3)cc(-c3cccnc3F)c2=O)c1` [Example 80, 3-(2-Fluoro-3-pyridyl)-5-(2-pyridyl)-1-(3-methoxyphenyl)-1,2-dihydropyridin-2-one] was run?
A: The pIC50 was 6.52.

Q: How did the pIC50 turn out when `O=c1c(-c2ccccn2)cc(-c2ccccn2)cn1-c1ccccc1` [Example 62, 3-(2-Pyridyl)-5-(2-pyridyl)-1-phenyl-1,2-dihydropyridin-2-one] was run?
A: The pIC50 was 5.51.

Q: How did the pIC50 turn out when `O=c1c(-c2cccnc2F)cc(-c2ccccc2)cn1-c1cccnc1` [Example 87, 3-(2-Fluoro-3-pyridyl)-5-phenyl-1-(3-pyridyl)-1,2-dihydropyridin-2-one] was run?
A: The pIC50 was 5.92.

Q: How did the pIC50 turn out when `N#Cc1ccccc1-c1cc(-c2ccccn2)cn(-c2ccccc2C#N)c1=O` [Example 110, 3-(2-Cyanophenyl)-5-(2-pyridyl)-1-(2-cyanophenyl)-1,2-dihydropyridin-2-one] was run?
A: Its pIC50 is 5.70.

same assay, conditions: Table 2; suppression of AMPA-induced calcium influx into nerve cells

Q: How did the pIC50 turn out when `N#Cc1ccccc1-c1cc(-c2ncccn2)cn(-c2cccc(N)c2)c1=O` [Example 218, 1-(3-Aminophenyl)-3-(2-cyanophenyl)-5-(2-pyrimidinyl)-1,2-dihydropyridin-2-one] was run?
A: Its pIC50 is 7.00.

Q: With `O=c1c(-c2ccc(N3CCCC3)nc2)cc(-c2ccccn2)cn1-c1ccccc1` [Example 285, 3-(2-Pyrrolidinopyridin-5-yl)-5-(2-pyridyl)-1-phenyl-1,2-dihydropyridin-2-one] as the compound, how does the pIC50 read?
A: Its pIC50 is 5.14.

Q: With `CC(C)(C)NS(=O)(=O)c1ccc(-c2cc(-c3ccccn3)cn(-c3ccccc3)c2=O)cc1` [Example 278, 3-[4-(tert-Butylaminosulfonyl)phenyl]-1-phenyl-5-(2-pyridyl)-1,2-dihydropyridin-2-one] as the compound, how does the pIC50 read?
A: The pIC50 was 5.55.

Q: `Cc1cccc(C)c1-c1cc(-c2ccccn2)cn(-c2cccnc2)c1=O` [Example 135, 3-(2,6-Dimethylphenyl)-5-(2-pyridyl)-1-(3-pyridyl)-1,2-dihydropyridin-2-one] was tested. Which pIC50 did it give?
A: The pIC50 was 7.40.

Q: How did the pIC50 turn out when `N#Cc1ccccc1-c1cc(-c2ccccn2)cn(-c2cccc3cccnc23)c1=O` [Example 292, 3-(2-Cyanophenyl)-5-(2-pyridyl)-1-(8-quinolinyl)-1,2-dihydropyridin-2-one] was run?
A: The pIC50 was 5.48.

Q: With `O=c1c(-c2cncnc2)cc(-c2ccccn2)cn1-c1ccccc1` [Example 257, 1-Phenyl-3-(5-pyrimidinyl)-5-(2-pyridyl)-1,2-dihydropyridin-2-one] as the compound, how does the pIC50 read?
A: The pIC50 was 5.43.

Q: How did the pIC50 turn out when `O=c1c(Nc2ccccc2)cc(-c2ccccn2)cn1-c1ccccc1` [Example 174, 3-Phenylamino-5-(2-pyridyl)-1-phenyl-1,2-dihydropyridin-2-one] was run?
A: Its pIC50 is 5.48.

Q: How did the pIC50 turn out when `O=c1c(-c2ccccc2O)cc(-c2ccccn2)cn1-c1ccccc1` [Example 141, 3-(2-Hydroxyphenyl)-5-(2-pyridyl)-1-phenyl-1,2-dihydropyridin-2-one] was run?
A: The pIC50 was 6.15.

Q: `Cc1cccc(-c2cc(-c3ccccc3C#N)c(=O)n(-c3ccccc3)c2)n1` [Example 195, 3-(2-Cyanophenyl)-5-(6-methylpyridin-2-yl)-1-phenyl-1,2-dihydropyridin-2-one] was tested. Which pIC50 did it give?
A: Its pIC50 is 6.70.

Q: How did the pIC50 turn out when `O=c1c(-c2ccccc2Cl)cc(-c2ccccn2)cn1-c1cccc(O)c1` [Example 143, 3-(2-Chlorophenyl)-5-(2-pyridyl)-1-(3-hydroxyphenyl)-1,2-dihydropyridin-2-one] was run?
A: The pIC50 was 7.00.

Q: `COc1ccc(-c2cc(-c3ccccc3C#N)c(=O)n(-c3ccccc3)c2)cn1` [Example 200, 3-(2-Cyanophenyl)-5-(2-methoxypyridin-5-yl)-1-phenyl-1,2-dihydropyridin-2-one] was tested. Which pIC50 did it give?
A: Its pIC50 is 5.70.

Q: With `N#Cc1ccccc1-c1cc(-c2ccc([N+](=O)[O-])cn2)cn(-c2ccccc2)c1=O` [Example 299, 3-(2-Cyanophenyl)-5-(5-nitropyridin-2-yl)-1-phenyl-1,2-dihydropyridin-2-one] as the compound, how does the pIC50 read?
A: Its pIC50 is 5.36.

Q: With `O=c1c(C2CCCCC2)cc(-c2ccccn2)cn1-c1ccccc1` [Example 192, 3-Cyclohexyl-5-(2-pyridyl)-1-phenyl-1,2-dihydropyridin-2-one] as the compound, how does the pIC50 read?
A: Its pIC50 is 5.96.

Q: With `CC(=O)N1CCN(Cc2cccc(-n3cc(-c4ccccn4)cc(-c4ccccc4C#N)c3=O)c2)CC1` [Example 251, 1-[3-[(4-Acetylpiperazino)methyl]phenyl]-3-(2-cyanophenyl)-5-(2-pyridyl)-1,2-dihydropyridin-2-one] as the compound, how does the pIC50 read?
A: Its pIC50 is 6.05.

Q: How did the pIC50 turn out when `N#Cc1ccccc1-c1cc(-c2cccc3ccccc23)cn(-c2cccnc2)c1=O` [Example 210, 3-(2-Cyanophenyl)-5-(1-naphthyl)-1-(3-pyridyl)-1,2-dihydropyridin-2-one] was run?
A: Its pIC50 is 5.28.

Q: How did the pIC50 turn out when `N#Cc1ccccc1-c1cc(-c2ccccn2)cn(-c2ccc3nc(N)sc3c2)c1=O` [Example 166, 1-(2-Aminobenzothiazol-6-yl)-3-(2-cyanophenyl)-5-(2-pyridyl)-1,2-dihydropyridin-2-one] was run?
A: The pIC50 was 6.52.

same assay, conditions: Table 3; primary culture of rat embryo cerebral cortex nerve cells, 2 μM AMPA, 1 μM MK-801

Q: `CN1CCC(Oc2cccc(-n3cc(-c4ccccn4)cc(-c4ccccc4C#N)c3=O)c2)CC1` [Example 341, 1-[3-(N-methylpiperidin-4-yl-oxy)phenyl]-3-(2-cyanophenyl)-5-(2-pyridyl)-1,2-dihydropyridin-2-one] was tested. Which pIC50 did it give?
A: Its pIC50 is 6.70.

Q: With `N#Cc1ccccc1-c1cc(-c2ccccn2)cn(CC2CCN(C(=O)OCc3ccccc3)CC2)c1=O` [Example 319, 1-[1-(Benzyloxycarbonyl)piperidin-4-yl]methyl-3-(2-cyanophenyl)-5-(2-pyridyl)-1,2-dihydropyridin-2-one] as the compound, how does the pIC50 read?
A: The pIC50 was 5.70.

Q: With `N#Cc1ccccc1-c1cc(-c2nc3ccccc3n2C2CCN(Cc3ccccc3)CC2)cn(-c2ccccc2)c1=O` [Example 365, 3-(2-Cyanophenyl)-5-[1-(1-benzylpiperidin-4-yl)benzimidazol-2-yl]-1-phenyl-1,2-dihydropyridin-2-one] as the compound, how does the pIC50 read?
A: The pIC50 was 5.57.

Q: `O=c1c(-c2nc(-c3ccccc3)no2)cc(-c2ccccn2)cn1-c1ccccc1` [Example 390, 3-(3-Phenyl-1,2,4-oxadiazol-5-yl)-1-phenyl-5-(2-pyridyl)-1,2-dihydropyridin-2-one] was tested. Which pIC50 did it give?
A: The pIC50 was 6.00.

Q: With `N#Cc1ccccc1-c1cc(-c2ccccn2)cn(-c2cccc(OC3CCN(C(=O)c4ccccc4)CC3)c2)c1=O` [Example 334, 1-[3-(N-benzoylpiperidin-4-yl-oxy)phenyl]-3-(2-cyanophenyl)-5-(2-pyridyl)-1,2-dihydropyridin-2-one] as the compound, how does the pIC50 read?
A: The pIC50 was 6.22.

Q: How did the pIC50 turn out when `O=c1c(-c2nc3cnccc3[nH]2)cc(-c2ccccn2)cn1-c1ccccc1` [Example 367, 3-(1H-Imidazo[4,5-c]pyridin-2-yl)-5-(2-pyridyl)-1-phenyl-1,2-dihydropyridin-2-one] was run?
A: The pIC50 was 6.22.

Q: How did the pIC50 turn out when `O=C(NC12CC3CC(CC(C3)C1)C2)c1cc(-c2ccccn2)cn(-c2ccccc2)c1=O` [Example 346, 3-(1-Adamantylaminocarbonyl)-5-(2-pyridyl)-1-phenyl-1,2-dihydropyridin-2-one] was run?
A: Its pIC50 is 5.43.

Q: `N#Cc1ccccc1-c1cc(NC(=O)Nc2ccccc2)cn(-c2ccccc2)c1=O` [Example 307, 3-(2-Cyanophenyl)-1-phenyl-5-[N-(N′-phenylureylenyl)]-1,2-dihydropyridin-2-one] was tested. Which pIC50 did it give?
A: The pIC50 was 5.70.
